In patent US11026946B2, “Pharmacologically active alicyclic-substituted pyrazolo[1,5-a]pyrimidine derivatives” (RICHTER GEDEON NYRT., priority 2017, dated 2021):

Assays:
GABAB receptor = target: T1, GABAB receptor (Rattus norvegicus, UniProt O88871+Q9Z0U4); experiment: In vitro [35S]GTPγS binding assay in rat cortical membranes; format: biochemical; conditions: PAM EC50, [35S]GTPγS binding, read-out: In vitro PAM potency
T1 construct: from tissue; host or cells: rat brain cortex membranes
Procedure: In Vitro [^35S]GTPγS Binding Assay in Rat Cortical Membranes
Cortices of freshly harvested rat brains were dissected on an ice-cold surface and homogenized by a glass Dounce homogeniser immediately in ice-cold buffer containing 50 mM Tris, 5 mM MgCl2 and 1 mM EDTA (pH=7.6). Tissue homogenates were centrifuged at 40000 g for 15 min at 4° C. Membrane pellets were resuspended in the same buffer and membranes were incubated for 10 min at 30° C. in a shaking water bath to eliminate endogenous GABA. Homogenates were centrifuged again under the same conditions. The final pellets were resuspended in ice-cold buffer (pH=7.6) containing 50 mM Tris, 100 mM NaCl, 7 mM MgCl2, 1 mM EDTA and 1 mM dithiotreithol (DTT) to yield a concentration of 20 mg tissue weight/ml and frozen at −70° C. until use. The assay was done in a buffer containing 50 mM Tris (pH=7.4), 100 mM NaCl, 7 mM MgCl2, 1 mM EDTA and 1 mM DTT. Each assay tube contained 150 μL GDP (in a final concentration of 50 μM), 100 μL ligand and 125 μL of the membrane suspension (250 μg tissue/tube). The assay tubes were preincubated for 10 min at 30° C. to assure equilibrium. Nonspecific binding was determined in the presence of 10 μM GTPγS: basal binding was determined in the presence of buffer only. After addition of 50 pM [^35S]GTPγS in a volume of 25 μL to the tubes, membranes were incubated for an additional 60 min at 30° C. The assay was terminated by rapid filtration through Packard UniFilter GF/B using a Packard harvester and washed four times with 1 ml ice-cold buffer. After drying the filters at 40° C. for 1 h, 40 μL Microscint (Packard) was added to the filters and radioactivity of the filters was determined by a TopCount NXT (PerkinElmer, Waltham, Mass.: Alper and Nelson, Eur. J. Pharmacol. 1998, 343, 303-312; Rinken et al, Biochem. Pharmacol. 1999, 57, 155-162). Data thus gathered were used to determine PAM EC50 values for each compound as primary in vitro activity end point.

[1] = Plasma and brain levels after the USV assay; format: in vivo, rat; conditions: 1 mg/kg per os, approximately 75 min after treatment; for brain exposure at 1 mg/kg: rat brain; for plasma exposure at 1 mg/kg: rat plasma
Procedure: (§1) Under stressful conditions, adult rats emit 22 kHz ultrasounds that can be reduced by various pharmacological treatments (De Vry et al, Eur. J. Pharmacol. 1993, 249, 331-339; Sanchez, Eur. J. Pharmacol. 2003, 463, 133-143). […] Therefore, a foot shock-induced vocalization paradigm in adult rats was used to assess efficacy of centrally acting GABAB receptor ligands. Behavioral measurements were carried out on male Wistar rats (200-250 g, Toxicoop, Hungary). Rats were housed in groups of four in plastic cages with a wire grid top in a temperature and light-controlled laboratory animal care unit (22±2° C., 12-h light/dark cycle, lights on at 6:00 AM) with ad libitum access to commercial pellet rat food and tap water. Investigations were approved by the Local Ethical Committee of Gedeon Richter Plc. and were carried out in strict compliance with the European Directive 2010/63/EU regarding the care and use of laboratory animals for experimental procedures and all efforts were made to minimize the number of animals as well as their suffering. In order to evoke emission of ultrasounds, animals were footshocked after a habituation period of 30 s (6 shocks, 1 s, 0.8 mA each, inter-shock interval 10 s) in a sound attenuated shocking chamber (Experimetria, 40×40×80 cm). Investigational compounds were administered at the dose of 1 mg/kg in a solid dispersion formulation in distilled water 1 h before shocking per os. Vocalizations were measured right after the last footshock for 10 min with a Metris Sonotrack system and the total time of vocalizations was registered. Vocalization of parallel vehicle treated animals was considered as control value and inhibition percent was calculated for each compound. At approximately 75 min after treatment and behavioral measurements, blood and brain samples were harvested in order to determine exposures associated with in vivo activity.
In Table 2 compounds of this invention measured in the USV assay are listed. In Table 3 plasma and brain levels of compounds of this invention are listed.

adult rats = experiment: Foot shock-induced ultrasonic vocalization (USV) in adult rats; format: in vivo, rat; conditions: 1 mg/kg per os, 1 h before shocking, male Wistar rats, versus vehicle
Procedure: Foot Shock-Induced Ultrasonic Vocalization (USV) in Adult Rats
as §1

GABAB receptors = GABAB receptors (Homo sapiens, UniProt O75899+Q9UBS5); conditions: in vitro positive allosteric activity, [35S]GTPγS binding; cited from earlier work
Chain of GABAB receptors (O75899 42-941): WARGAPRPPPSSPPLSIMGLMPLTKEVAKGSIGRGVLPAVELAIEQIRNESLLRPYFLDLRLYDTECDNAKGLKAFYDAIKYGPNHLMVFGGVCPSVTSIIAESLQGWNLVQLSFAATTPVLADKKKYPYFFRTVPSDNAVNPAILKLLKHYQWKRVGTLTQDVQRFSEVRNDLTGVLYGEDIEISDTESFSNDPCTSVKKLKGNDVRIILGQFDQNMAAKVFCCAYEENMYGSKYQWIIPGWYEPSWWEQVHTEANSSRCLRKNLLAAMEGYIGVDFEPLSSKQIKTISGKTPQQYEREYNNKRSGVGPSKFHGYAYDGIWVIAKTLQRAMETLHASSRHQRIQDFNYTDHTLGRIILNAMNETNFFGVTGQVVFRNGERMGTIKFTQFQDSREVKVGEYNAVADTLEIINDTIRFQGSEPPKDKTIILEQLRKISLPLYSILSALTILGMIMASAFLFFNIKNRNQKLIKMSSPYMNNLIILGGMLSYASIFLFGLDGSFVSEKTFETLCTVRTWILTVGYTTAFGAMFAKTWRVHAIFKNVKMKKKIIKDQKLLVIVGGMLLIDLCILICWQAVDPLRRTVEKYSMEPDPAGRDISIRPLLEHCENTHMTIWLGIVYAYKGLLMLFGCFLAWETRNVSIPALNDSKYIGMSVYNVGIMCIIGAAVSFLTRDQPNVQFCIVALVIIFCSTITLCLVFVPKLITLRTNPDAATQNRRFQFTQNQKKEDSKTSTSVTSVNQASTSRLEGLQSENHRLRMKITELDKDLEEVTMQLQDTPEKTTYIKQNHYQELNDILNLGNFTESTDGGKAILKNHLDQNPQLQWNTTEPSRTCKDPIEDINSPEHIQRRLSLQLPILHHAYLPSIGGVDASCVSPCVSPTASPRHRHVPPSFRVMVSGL
Chain of GABAB receptors (Q9UBS5 15-961 limits assumed): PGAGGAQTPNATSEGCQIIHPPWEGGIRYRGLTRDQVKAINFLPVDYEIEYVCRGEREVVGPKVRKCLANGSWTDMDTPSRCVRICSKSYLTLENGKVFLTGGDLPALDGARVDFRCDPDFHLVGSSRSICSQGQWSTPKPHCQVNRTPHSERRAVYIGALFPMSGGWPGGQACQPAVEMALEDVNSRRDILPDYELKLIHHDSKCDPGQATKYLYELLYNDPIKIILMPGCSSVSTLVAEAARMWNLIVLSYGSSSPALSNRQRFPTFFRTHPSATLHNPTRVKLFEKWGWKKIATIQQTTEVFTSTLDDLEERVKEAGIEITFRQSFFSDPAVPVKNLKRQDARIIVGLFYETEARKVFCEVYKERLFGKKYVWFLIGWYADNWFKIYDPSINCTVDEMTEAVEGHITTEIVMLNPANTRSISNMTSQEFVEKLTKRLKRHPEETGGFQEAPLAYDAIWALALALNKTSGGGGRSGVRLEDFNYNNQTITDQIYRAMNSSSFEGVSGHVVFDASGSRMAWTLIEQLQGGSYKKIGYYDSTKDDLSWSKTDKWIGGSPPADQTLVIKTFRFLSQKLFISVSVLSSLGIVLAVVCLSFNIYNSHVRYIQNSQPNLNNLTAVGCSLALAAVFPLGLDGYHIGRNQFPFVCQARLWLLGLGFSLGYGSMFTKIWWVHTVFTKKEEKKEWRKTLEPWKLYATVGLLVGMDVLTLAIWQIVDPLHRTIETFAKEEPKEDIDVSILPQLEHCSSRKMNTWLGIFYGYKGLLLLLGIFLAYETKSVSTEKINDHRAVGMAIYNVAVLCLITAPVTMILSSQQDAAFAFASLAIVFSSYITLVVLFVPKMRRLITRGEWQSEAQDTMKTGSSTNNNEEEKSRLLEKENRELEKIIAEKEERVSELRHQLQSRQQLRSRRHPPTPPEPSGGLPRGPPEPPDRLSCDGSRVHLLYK

T1 sequence (O88871 41-940): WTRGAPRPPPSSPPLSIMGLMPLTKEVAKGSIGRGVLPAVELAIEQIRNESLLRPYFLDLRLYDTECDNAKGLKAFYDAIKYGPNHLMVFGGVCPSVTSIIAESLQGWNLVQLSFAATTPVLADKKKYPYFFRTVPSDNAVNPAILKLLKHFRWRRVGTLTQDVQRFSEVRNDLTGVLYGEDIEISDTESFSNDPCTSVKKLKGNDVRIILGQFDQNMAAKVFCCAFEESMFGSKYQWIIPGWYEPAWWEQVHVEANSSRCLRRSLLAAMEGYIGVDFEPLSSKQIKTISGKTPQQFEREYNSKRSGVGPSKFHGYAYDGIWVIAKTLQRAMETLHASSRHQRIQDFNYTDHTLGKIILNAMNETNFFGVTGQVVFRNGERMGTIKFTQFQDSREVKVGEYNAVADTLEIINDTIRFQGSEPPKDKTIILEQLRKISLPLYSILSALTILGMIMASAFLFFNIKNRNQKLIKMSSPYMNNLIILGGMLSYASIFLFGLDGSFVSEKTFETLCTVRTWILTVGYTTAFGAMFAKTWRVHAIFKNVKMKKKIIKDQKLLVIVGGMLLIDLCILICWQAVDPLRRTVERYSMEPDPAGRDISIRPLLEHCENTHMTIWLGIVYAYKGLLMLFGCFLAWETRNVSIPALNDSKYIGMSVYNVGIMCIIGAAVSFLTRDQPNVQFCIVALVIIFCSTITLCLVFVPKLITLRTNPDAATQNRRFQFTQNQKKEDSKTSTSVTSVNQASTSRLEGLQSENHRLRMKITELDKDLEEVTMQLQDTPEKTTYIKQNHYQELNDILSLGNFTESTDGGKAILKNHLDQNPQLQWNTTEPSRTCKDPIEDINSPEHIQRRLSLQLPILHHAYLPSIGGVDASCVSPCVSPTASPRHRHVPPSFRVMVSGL
T1 sequence (Q9Z0U4 17-960 limits assumed): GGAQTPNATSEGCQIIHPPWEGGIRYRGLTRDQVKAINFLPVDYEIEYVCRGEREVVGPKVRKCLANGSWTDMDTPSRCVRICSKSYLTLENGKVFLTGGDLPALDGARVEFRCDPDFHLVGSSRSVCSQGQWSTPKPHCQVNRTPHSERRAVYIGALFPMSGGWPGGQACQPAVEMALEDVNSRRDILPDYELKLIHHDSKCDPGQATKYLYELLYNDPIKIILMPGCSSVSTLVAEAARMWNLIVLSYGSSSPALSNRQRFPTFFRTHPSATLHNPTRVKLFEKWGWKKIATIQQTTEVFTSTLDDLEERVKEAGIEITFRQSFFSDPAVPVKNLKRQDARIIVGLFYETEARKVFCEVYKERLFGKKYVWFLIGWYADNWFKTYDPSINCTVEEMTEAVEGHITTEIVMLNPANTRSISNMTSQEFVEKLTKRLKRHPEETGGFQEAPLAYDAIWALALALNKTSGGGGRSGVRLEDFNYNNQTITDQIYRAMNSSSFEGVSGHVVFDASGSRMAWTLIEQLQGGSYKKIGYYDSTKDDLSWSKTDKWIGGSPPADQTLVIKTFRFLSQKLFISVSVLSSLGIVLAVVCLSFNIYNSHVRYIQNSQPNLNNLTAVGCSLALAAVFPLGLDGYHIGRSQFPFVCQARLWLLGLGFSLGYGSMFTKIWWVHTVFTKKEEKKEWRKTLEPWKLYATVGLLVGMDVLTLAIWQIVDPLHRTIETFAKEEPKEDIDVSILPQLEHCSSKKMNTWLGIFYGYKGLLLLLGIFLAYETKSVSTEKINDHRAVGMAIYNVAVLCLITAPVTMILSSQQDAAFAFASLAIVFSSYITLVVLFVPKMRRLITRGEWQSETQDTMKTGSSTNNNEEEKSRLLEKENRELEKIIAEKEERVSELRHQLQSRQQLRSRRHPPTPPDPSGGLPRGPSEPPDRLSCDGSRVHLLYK

Question: Which EC50 (GABAB receptor) does the source give for `CC[C@@]1(C(=O)O)CCCN(c2c(C(C)C)c(C)nc3c(F)c([C@H]4CC[C@H](C(F)(F)F)CC4)nn23)C1` (single isomer, unassigned) [Example 18] here?
Answer: < 1 nM

Question: What about the “brain exposure at 1 mg/kg” value [1] of the same molecule?
Answer: 30 ng/g

Question: What about the “plasma exposure at 1 mg/kg” value [1] of the same molecule?
Answer: 175 ng/mL

Question: What about the “USV inhibition at 1 mg/kg (%)” value (adult rats) of the same molecule?
Answer: 75%

Question: Which results are given for `Cc1nc2cc([C@H]3CC[C@H](C(F)(F)F)CC3)nn2c(N2CCC[C@](C(=O)O)(C(C)C)C2)c1C(C)C` [Example 2, (3S)-1-[5-Methyl-6-(propan-2-yl)-2-[trans-4-(trifluoromethyl)cyclohexyl]-pyrazolo[1,5-a]pyrimidin-7-yl]-3-(propan-2-yl)piperidine-3-carboxylic Acid]?
Answer: EC50 (GABAB receptor): 1 to 10 nM; brain exposure at 1 mg/kg [1]: 74 ng/g; plasma exposure at 1 mg/kg [1]: 188 ng/mL; USV inhibition at 1 mg/kg (%) (adult rats): 85%

Question: Which results are given for `Cc1nc2cc([C@H]3CC[C@H](C(F)(F)F)CC3)nn2c(N2CCC[C@@](C)(C(=O)O)C2)c1C(C)C` [Example 3, (3R)-3-methyl-1-[5-methyl-6-(propan-2-yl)-2-[trans-4-(trifluoromethyl)cyclohexyl]-pyrazolo [1,5-a]pyrimidin-7-yl]piperidine-3-carboxylic Acid]?
Answer: EC50 (GABAB receptor): < 1 nM; brain exposure at 1 mg/kg [1]: 18 ng/g; plasma exposure at 1 mg/kg [1]: 58 ng/mL; USV inhibition at 1 mg/kg (%) (adult rats): 100%

Question: Which “binding potency (Faghih et al.)” value (GABAB receptors) does the source give for `CCC(c1ccc(Cl)cc1)c1cc2nc(C)cc(N3CCCCC3CCO)n2n1` (centres unmarked) [Example 3-1] here?
Answer: nanomolar

Question: For `CCCC(c1ccc(Cl)cc1)c1cc2nc(C)cc(N3CCCCC3CCO)n2n1` (centres unmarked) [Example 5-1], which “binding potency (Faghih et al.)” value (GABAB receptors) is on record?
Answer: nanomolar

Question: Which “binding potency (Faghih et al.)” value (GABAB receptors) does the source give for `Cc1cc(N2CCCCC2CCO)n2nc(CC34CC5CC(CC(C5)C3)C4)cc2n1` (centres unmarked) [Example 7-1] here?
Answer: high micromolar

Question: With `Cc1nc2cc([C@H]3CC[C@H](C(F)(F)F)CC3)nn2c(N2CCC[C@](C)(C(=O)O)C2)c1C(C)C` [Example 11] as the molecule, how does the EC50 (GABAB receptor) read?
Answer: 1 to 10 nM

Question: And the “brain exposure at 1 mg/kg” value [1]?
Answer: 68 ng/g

Question: And the “plasma exposure at 1 mg/kg” value [1]?
Answer: 146 ng/mL

Question: And the “USV inhibition at 1 mg/kg (%)” value (adult rats)?
Answer: 71%

Question: Which EC50 (GABAB receptor) does the source give for `C[C@@]1(C(=O)O)CCCN(c2c3c(nc4cc([C@H]5CC[C@H](C(F)(F)F)CC5)nn24)CCCCC3)C1` [Example 35] here?
Answer: 1 to 10 nM

Question: What about the “brain exposure at 1 mg/kg” value [1] of the same molecule?
Answer: 35 ng/g

Question: And the “plasma exposure at 1 mg/kg” value [1]?
Answer: 207 ng/mL

Question: And the “USV inhibition at 1 mg/kg (%)” value (adult rats)?
Answer: 57%
